These results are taken from PubChem BioAssay (NCI).

“And” between values parts separate entries of the source, which are not always exact repeats. Identical values can stand only once.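 Five concentrations, 48 hours, 96-well plates. GI50: concentration for 50% inhibition of growth. TGI denotes the concentration required for complete inhibition of growth.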

Among the test systems are HCT-116 colon; LOX IMVI melanoma; HS 578T breast; OVCAR-5 ovarian; A498 renal; NCI-H226 lung; HOP-92 NSCLC; UACC-257 melanoma.
Common to all, as to assay: NCI tumour cell line growth inhibition, 48 h

For `C[C@@H]1CCc2ncc(F)cc2[C@H]2CCCN2c2ccn3ncc(c3n2)C(=O)N1`, the GI50 is more than 100 µM in the experiment on HCT-116 colon; 33.1 µM in the experiment on LOX IMVI melanoma; 24.5 µM with HS 578T breast; more than 100 µM in the experiment with OVCAR-5 ovarian; 12.9 µM with A498 renal; 28.3 µM in the experiment with NCI-H226 lung. Moreover, the GI50 in the experiment on HOP-92 NSCLC was 47.8 µM; with UACC-257 melanoma, more than 100 µM. Moreover, the TGI was more than 100 µM in the experiment on HCT-116 colon; more than 100 µM with LOX IMVI melanoma; more than 100 µM in the experiment on HS 578T breast; more than 100 µM in the experiment on OVCAR-5 ovarian; 42.2 µM in the experiment with A498 renal; more than 100 µM in the experiment on NCI-H226 lung. Besides, the TGI in the experiment with HOP-92 NSCLC and with UACC-257 melanoma was more than 100 µM each time.

As for `COc1cc2c3cc1Oc1c(OC)c(OC)cc4c1C(Cc1ccc(O)c(c1)Oc1ccc(cc1)CC3N(C)CC2)N(C)CC4` (configuration not stated), the GI50 in the experiment on HCT-116 colon is 5.56 µM; in the experiment with LOX IMVI melanoma, 3.68 µM; in the experiment with HS 578T breast, 15.3 µM; in the experiment with OVCAR-5 ovarian, 8.3 µM; in the experiment with NCI-H226 lung, 34.4 µM; with HOP-92 NSCLC it was 17.2 µM. Further, the GI50 in the experiment on UACC-257 melanoma was 5.99 µM. In addition, the TGI in the experiment on HCT-116 colon is > 100 µM and 49.5 µM; in the experiment on LOX IMVI melanoma it was > 100 µM and 15.9 µM; in the experiment on HS 578T breast, 55.3 µM and 43.4 µM; in the experiment on OVCAR-5 ovarian it was > 100 µM and 62.4 µM; with A498 renal, 48.4 µM; in the experiment on NCI-H226 lung, more than 100 µM. For the same compound, the TGI in the experiment with HOP-92 NSCLC was 94.2 µM and 41.1 µM; in the experiment with UACC-257 melanoma it was > 100 µM and 18.9 µM.

Take `Clc1ccc(CN2CCCN(Cc3ccc(Cl)cc3)C2c2cc3ccccc3c3ccccc23)cc1`: the TGI with HCT-116 colon was more than 100 µM; in the experiment with LOX IMVI melanoma, more than 100 µM; in the experiment with HS 578T breast, more than 100 µM; in the experiment on OVCAR-5 ovarian, more than 100 µM; in the experiment with A498 renal, 56.5 µM; with NCI-H226 lung, more than 100 µM. In addition, the TGI with HOP-92 NSCLC was more than 100 µM; with UACC-257 melanoma it was 56.1 µM.

`COCC(C(=O)OC1C/C=C/C=C/C(=O)OC(C(C)C(O)C(C)CCC(OC(=O)C(C)N(C)C)C(C)C(OC(C)=O)C(C)/C=C/N(C)C=O)C/C=C/C(OC)CC(C)C/C=C(\C)C(OC)CCC(C)C(O)C1C)N(C)C` (configuration not stated): the GI50 with HCT-116 colon is less than 0.0001 µM; in the experiment with LOX IMVI melanoma, less than 0.0001 µM; in the experiment on HS 578T breast, less than 0.0001 µM; with OVCAR-5 ovarian it was less than 0.0001 µM; with A498 renal, less than 0.0001 µM; in the experiment with HOP-92 NSCLC, 0.00145 µM. Moreover, in the experiment on UACC-257 melanoma, the GI50 was less than 0.0001 µM. Besides, the TGI in the experiment with HCT-116 colon is 0.00687 µM; in the experiment on LOX IMVI melanoma, 0.00377 µM; in the experiment on HS 578T breast it was less than 0.0001 µM; with OVCAR-5 ovarian, 0.162 µM; with A498 renal, less than 0.0001 µM; in the experiment on HOP-92 NSCLC, 0.024 µM. The TGI in the experiment with UACC-257 melanoma was more than 1 µM.

Consider `COc1cc2cc(Oc3cccc(NC(=O)Nc4cc(C(F)(F)F)cc(C(F)(F)F)c4)c3)c(C)nc2cc1OC`, for which the GI50 was 0.589 µM in the experiment on HCT-116 colon; 1.44 µM in the experiment with LOX IMVI melanoma; 2.65 µM in the experiment with HS 578T breast; 1.93 µM in the experiment with OVCAR-5 ovarian; 1.6 µM in the experiment on A498 renal; 1.8 µM with NCI-H226 lung. Further, the GI50 in the experiment with HOP-92 NSCLC was 1.12 µM; with UACC-257 melanoma, 2.48 µM. The TGI is 1.92 µM in the experiment with HCT-116 colon; 2.96 µM in the experiment with LOX IMVI melanoma; 6.94 µM with HS 578T breast; 4.14 µM in the experiment on OVCAR-5 ovarian; 4.29 µM with A498 renal; 3.91 µM in the experiment with NCI-H226 lung. Also, the TGI in the experiment with HOP-92 NSCLC stood at 3.9 µM; in the experiment with UACC-257 melanoma, 5.49 µM.

As for `CCOc1ccc2cc(-c3nn(CC4CCNCC4)c4ncnc(N)c34)ccc2c1`, the GI50 is 13.4 µM with HCT-116 colon; 26.8 µM in the experiment on LOX IMVI melanoma; 10.2 µM with HS 578T breast; 14.9 µM with OVCAR-5 ovarian; 11.2 µM in the experiment on A498 renal; 10 µM in the experiment on NCI-H226 lung. Besides, the GI50 in the experiment with HOP-92 NSCLC was 4.96 µM; in the experiment with UACC-257 melanoma, 16.8 µM. Further, the TGI is 29.3 µM with HCT-116 colon; more than 100 µM in the experiment on LOX IMVI melanoma; 43.4 µM with HS 578T breast; 34.5 µM in the experiment with OVCAR-5 ovarian; 24.9 µM in the experiment with A498 renal; 33.4 µM with NCI-H226 lung. For the same compound, the TGI is 24.9 µM in the experiment with HOP-92 NSCLC and 31.1 µM with UACC-257 melanoma.

Consider `CCOC(=O)c1c(NC(=O)c2ccc(Cl)cc2)sc2c(CN(C)C)c(O)ccc12`, for which the GI50 was 6.96 µM in the experiment on HCT-116 colon; 4.73 µM in the experiment with LOX IMVI melanoma; 4.06 µM in the experiment with HS 578T breast; 9.1 µM in the experiment on OVCAR-5 ovarian; 6.09 µM with A498 renal; 18.3 µM in the experiment on NCI-H226 lung. In addition, in the experiment on HOP-92 NSCLC, the GI50 was 1.78 µM. Further, the TGI is 40.8 µM in the experiment on HCT-116 colon; 18.5 µM in the experiment with LOX IMVI melanoma; 26.5 µM in the experiment on HS 578T breast; 57.2 µM in the experiment on OVCAR-5 ovarian; 19.9 µM in the experiment with A498 renal; more than 100 µM in the experiment with NCI-H226 lung. This compound also displayed a TGI in the experiment with HOP-92 NSCLC of 6.07 µM.

As for `CN(C)c1ccc(C(O)C2=CC(=O)c3ccccc3C2=O)cc1` (configuration not stated), the GI50 was 17.8 µM in the experiment with HCT-116 colon; 0.509 µM with HS 578T breast; 22.4 µM in the experiment on OVCAR-5 ovarian; 15.1 µM in the experiment on A498 renal; 3.01 µM with NCI-H226 lung; 1.56 µM in the experiment with HOP-92 NSCLC. In the experiment on UACC-257 melanoma, the GI50 was 18.4 µM. For the same compound, the TGI with HCT-116 colon is 37 µM; in the experiment on HS 578T breast, more than 100 µM; with OVCAR-5 ovarian it was 52.4 µM; in the experiment with A498 renal, 63 µM; in the experiment with NCI-H226 lung, 14.2 µM; in the experiment on HOP-92 NSCLC, 4.16 µM. The same compound returned a TGI in the experiment with UACC-257 melanoma of 41 µM.

Consider `CCCCCC[C@H]1C(=O)O[C@H](C)[C@H](NC(=O)c2cccc(NC=O)c2OC)C(=O)O[C@@H](C)[C@@H]1OC(=O)CCC` (tested in a mixture with another compound), for which the GI50 in the experiment on HCT-116 colon was 9.89 µM; with LOX IMVI melanoma, 8.67 µM; in the experiment on HS 578T breast, 13.1 µM; with OVCAR-5 ovarian it was 20.9 µM; in the experiment with A498 renal, 10 µM; in the experiment on NCI-H226 lung, 14.7 µM. Also, the GI50 in the experiment with UACC-257 melanoma is 2.81 µM. The TGI in the experiment on HCT-116 colon is 24.3 µM; in the experiment on LOX IMVI melanoma, 23.8 µM; in the experiment on HS 578T breast, 38.6 µM; in the experiment on OVCAR-5 ovarian it was 47.6 µM; in the experiment with A498 renal, 29.7 µM; with NCI-H226 lung, 39.4 µM. The TGI in the experiment on UACC-257 melanoma was determined as 11.9 µM.
